Experimental findings from ChEMBL document CHEMBL6074649, “An insight into recent developments in imidazole based heterocyclic compounds as anticancer agents: Synthesis, SARs, and mechanism of actions” (Eur J Med Chem, 2024) are described below.

In brackets after ≈: the same amount, converted by molar mass.

One data set concerns HT-29. Briefly: Antiproliferative activity against human HT-29 cells assessed as reduction in cell growth by MTT assay. It is filed as functional, cell-based. On the technique in general: Formazan colour is commonly taken as a measure of viable cells.
The test system of data set [1] is A549. As to the kind of experiment: Antiproliferative activity against human A549 cells assessed as reduction in cell growth by MTT assay. The format is functional, cell-based.
Data set [2] concerns MCF7. Briefly: Antiproliferative activity against human MCF7 cells assessed as reduction in cell growth by MTT assay. It is filed as functional, cell-based.
The test system of the next data set is PANC-1. Briefly: Antiproliferative activity against human PANC-1 cells by MTT assay. It is filed as functional, cell-based.
The test system of data set [3] is MCF7. As to the kind of experiment: Antiproliferative activity against human MCF7 cells assessed as reduction in cell growth incubated for 24 hrs by MTT assay. It is filed as functional, cell-based. To be noted: MCF7, 24 h.
Data set [4] can be described thus: Antiproliferative activity against human MCF7/MX cells assessed as reduction in cell growth incubated for 24 hrs by MTT assay. It is filed as functional, cell-based.
The test system of data set [5] is HepG2. Briefly: Antiproliferative activity against human HepG2 cells assessed as reduction in cell growth incubated for 24 hrs by MTT assay. It is filed as functional, cell-based. To be noted: HepG2, 24 h.
Data set [6] relates to A549. Briefly: Antiproliferative activity against human A549 cells assessed as reduction in cell growth incubated for 24 hrs by MTT assay. The format is functional, cell-based. To be noted: A549, 24 h.
A further data set has as its system MDA-MB-231. Briefly: Antiproliferative activity against human MDA_MB-231 cells. The format is functional, cell-based.
A short description of data set [7]: Antiproliferative activity against mouse 4T1-Luc cells. It is filed as functional, cell-based.
The test system of data set [8] is MCF7. Briefly: Antiproliferative activity against MCF7 cells assessed as reduction in cell growth by MTT assay. As to conditions: Homo sapiens. The format is functional, cell-based.
The nature of data set [9]: Antiproliferative activity against MRC5 cells assessed as reduction in cell growth by MTT assay. The format is toxicity, cell-based. As to conditions: human.
Data set [10] concerns NCI-H1299. As to the kind of experiment: Antiproliferative activity against human NCI-H1299 cells assessed as reduction in cell growth by MTT assay. It is filed as functional, cell-based.
In data set [11] the test system is A549. As to the kind of experiment: Antiproliferative activity against A549 cells assessed as reduction in cell growth by MTT assay. As to conditions: Homo sapiens. The format is functional, cell-based.
The next data set deals with NCI-H460. Briefly: Antiproliferative activity against human NCI-H460 cells assessed as reduction in cell growth by MTT assay. It is filed as functional, cell-based.
In a further data set the test system is U-251. Briefly: Antiproliferative activity against human U-251 cells assessed as reduction in cell viability incubated for 48 hrs by CCK-8 assay. To be noted: U-251, 48 h. The format is functional, cell-based.
Data set [12] has as its system HepG2. Briefly: Antiproliferative activity against human HepG2 cells assessed as reduction in cell viability incubated for 48 hrs by CCK-8 assay. The format is functional, cell-based. To be noted: HepG2, 48 h.
Data set [13] relates to A549. As to the kind of experiment: Antiproliferative activity against human A549 cells assessed as reduction in cell viability incubated for 48 hrs by CCK-8 assay. The format is functional, cell-based. To be noted: A549, 48 h.
Data set [14] relates to HCT-116. As to the kind of experiment: Cytotoxicity against human HCT-116 cells assessed as reduction in cell growth incubated for 24 hrs by MTT assay. The format is functional, cell-based. As to conditions: HCT-116, 24 h.
Another data set concerns Caco-2. Briefly: Cytotoxicity against human Caco-2 cells assessed as reduction in cell growth incubated for 24 hrs by MTT assay. As to conditions: Caco-2, 24 h. It is filed as functional, cell-based.
The subject of the next data set is HeLa. As to the kind of experiment: Cytotoxicity against human HeLa cells assessed as reduction in cell growth incubated for 24 hrs by MTT assay. It is filed as functional, cell-based.
The subject of data set [15] is NCI-H1299. Briefly: Anticancer activity against human NCI-H1299 cells by MTT assay. It is filed as functional, cell-based.
The subject of data set [16] is A549. Briefly: Anticancer activity against human A549 cells by MTT assay. It is filed as functional, cell-based.
Data set [17] can be described thus: Anticancer activity against human UKF-NB-3 cells by MTT assay. The format is functional, cell-based.
Data set [18] has as its system HCT-116. As to the kind of experiment: Cytotoxicity against human HCT-116 cells assessed as reduction in cell viability incubated for 24 hrs by MTT assay. To be noted: HCT-116, 24 h. The format is functional, cell-based.
Data set [19] is described as follows: Cytotoxicity against HUVEC cells. It is filed as toxicity, cell-based. As to conditions: human.
In a further data set the test system is HL-60. As to the kind of experiment: Cytotoxicity against human HL-60 cells assessed as reduction in cell growth incubated for 24 hrs by MTT assay. It is filed as functional, cell-based. To be noted: HL-60, 24 h.
Data set [20] concerns MCF7. As to the kind of experiment: Cytotoxicity against human MCF7 cells assessed as reduction in cell growth incubated for 24 hrs by MTT assay. The format is functional, cell-based. To be noted: MCF7, 24 h.
For data set [21], the system named is HepG2. As to the kind of experiment: Anticancer activity against human HepG2 cells. It is filed as functional, cell-based.
A further data set has as its system DU-145. Briefly: Anticancer activity against human DU-145 cells. The format is functional, cell-based.
Another data set has as its system PC-3. Briefly: Anticancer activity against human PC-3 cells. It is filed as functional, cell-based.
The subject of data set [22] is MCF7. As to the kind of experiment: Anticancer activity against human MCF7 cells. It is filed as functional, cell-based.

By IC50 is commonly meant the midpoint of a concentration-inhibition curve. As for `COc1ccccc1-c1nc(-c2ccccc2)c(-c2ccccc2)n1-c1ccc(S(N)(=O)=O)cc1`, the IC50 in the data set with HT-29 amounted to 2400 nM; in the data set with A549 [1], 2400 nM; with MCF7 [2], 2100 nM; in the data set on PANC-1, 2200 nM.
For `CCSc1nc(/C=C/C(=O)c2cc(OC)c(OC)c(OC)c2)cn1Cc1ccccc1`, the IC50 worked out at 9.88 µM in the data set with MCF7 [3], 20.2 µM in [4], 22 µM in the data set with HepG2 [5] and 7.05 µM in the data set on A549 [6].
Turning to `Cc1[nH]c(SCc2c(F)cccc2F)nc1Cc1ccccc1`, the values for the IC50 (in the data set with MDA-MB-231; in data set [7]) were 9.5 µM and 6.66 µM, respectively.
Consider `CN(C)CCCOc1ccc(-c2nc(-c3ccc(Br)o3)[nH]c2-c2ccc(OCCCN(C)C)cc2)cc1`, for which the IC50 in the data set with MCF7 [8] was 6.91 µM; in data set [9], 8.42 µM; in the data set on NCI-H1299 [10], less than 100 nM; in the data set on A549 [11], 5.82 µM; with NCI-H460, 4.16 µM.
For `Cc1[nH]c(SCc2ccccc2)nc1Cc1ccccc1`, the IC50 in the data set with MDA-MB-231 came to 8.26 µM; in [7], 8.03 µM.
In the case of `CN(C)c1ccc(/C=C/c2ncc([N+](=O)[O-])n2CCOC(=O)c2nccc3ccccc23)cc1`, the IC50 amounted to 140 nM in the data set with U-251, 170 nM with HepG2 [12] and 430 nM in the data set with A549 [13].
As for `O=C(O)c1ccc(C(=O)NCn2cc(CSc3nc(-c4ccccc4)c(-c4ccccc4)n3-c3ccccc3)nn2)cc1`, the results for the IC50 with HCT-116 [14], with Caco-2 and with HeLa were 16.8 µM, 4.67 µM and 6.87 µM, respectively.
Turning to `O=C(Cn1cnc(-c2ccccc2)c1-c1ccccc1)NCCOC(=O)C12CC3CC(CC(C3)C1)C2`, the IC50 is more than 100 µg/mL in the data set with NCI-H1299 [15], 43.2 µg/mL (≈ 89.3 µM) in the data set on A549 [16] and 8.53 µg/mL (≈ 17.6 µM) in data set [17].
For the compound `O=C(OCCn1c([N+](=O)[O-])cnc1/C=C/c1ccc2ccccc2c1)c1nccc2ccccc12`, the IC50 in the data set with U-251 came to 100 nM; in the data set with HepG2 [12], 110 nM; with A549 [13] it was 320 nM.
As to `S=c1[nH]c(-n2nnc3ccccc32)cn1-c1ccc(Cl)cc1Cl`, the IC50 amounted to 240 nM in the data set on HCT-116 [18], 13.6 µM in [19], 400 nM with HL-60 and 580 nM with MCF7 [20].
In the case of `Cc1nc([N+](=O)[O-])c(N2CCN(CCCBr)CC2)n1Cc1ccccc1`, the IC50 with HepG2 [21] came out at 32.1 µM; in the data set on DU-145, 53.7 µM; in the data set on PC-3 it was 48.6 µM; with MCF7 [22], 46.2 µM.
Take `COc1ccc(C2=N[C@H](c3ccc(Cl)cc3)[C@H](c3ccc(Cl)cc3)N2C(=O)N2CCNC(=O)C2)c(OC(C)C)c1`: the IC50 in the data set with NCI-H1299 [15] is more than 100 µg/mL; in the data set with A549 [16], 11.1 µg/mL (≈ 19.1 µM); in [17] it was 5.2 µg/mL (≈ 8.94 µM).
As for `NS(=O)(=O)c1ccc(-n2c(-c3ccccc3Br)nc(-c3ccccc3)c2-c2ccccc2)cc1`, the IC50 stood at 3100 nM in the data set on HT-29, 2800 nM with A549 [1], 2700 nM in the data set with MCF7 [2] and 2500 nM in the data set on PANC-1.
`CN(C)CCCOc1ccc(-c2nc(-c3ccc([N+](=O)[O-])o3)[nH]c2-c2ccc(OCCCN(C)C)cc2)cc1`: the IC50 in the data set with MCF7 [8] is 6.75 µM; in data set [9], 7.1 µM; with NCI-H1299 [10], less than 100 nM; with A549 [11] it was 6.71 µM; with NCI-H460 it was 6.95 µM.
On to `CCOC(=O)N1CCN(c2c([N+](=O)[O-])nc(CC)n2CC)CC1`, for which the IC50 in the data set on HepG2 [21] was found to be 5.6 µM; in the data set on DU-145, 42.2 µM; in the data set with PC-3, 49.6 µM; in the data set with MCF7 [22], 29.6 µM.
